We go through 15 compounds from PubChem BioAssay AID260 (DTP/NCI, 2004).

The assay deals with CD2F1 mice, intracerebral L1210 leukemia, survival T/C. The experiment in a line: NCI In Vivo Anticancer Drug Screen. Data for tumor model L1210 Leukemia (intracerebral) in CD2F1 (CDF1) mice. Conditions: higher = longer survival. Here is the method: The antitumor activity of compounds was measured in mice bearing transplantable tumors. Survival or tumor size were measured and the results are expressed as the measurement made in the treated group (T) divided by the measurement made in the vehicle treated control group (C). The tumor model used in this assay is L1210 Leukemia (intracerebral) in CD2F1 (CDF1) mice

Where [1] appears, read: endpoint: median survival time, dose: 32.0 mg/kg/injection, schedule: Q01DX005 (ip), vehicle: saline.
Where [2] appears, read: endpoint: mean survival time, dose: 0.25 mg/kg/injection, schedule: Q01DX009 (ip), vehicle: saline.
[3] abbreviates: endpoint: mean survival time, dose: 0.5 mg/kg/injection, schedule: Q01DX009 (ip), vehicle: saline.
Setting [4] is: endpoint: mean survival time, dose: 1.0 mg/kg/injection, schedule: Q01DX009 (ip), vehicle: saline.
[5] abbreviates: endpoint: median survival time, dose: 40.0 mg/kg/injection, schedule: Q01DX001 (ip), vehicle: saline.
Where [6] appears, read: endpoint: median survival time, dose: 80.0 mg/kg/injection, schedule: Q01DX001 (ip), vehicle: saline.

Several values for one entry are separate records, joined by “and”; a condition that tells them apart may be missing. Equal values may be shown once. Toxic doses and inconclusive results are not listed.

On to `C[C@@H](CN1CC(=O)NC(=O)C1)N1CC(=O)NC(=O)C1`, for which the T/C (endpoint: mean survival time, dose: 64.0 mg/kg/injection, schedule: Q01DX009 (ip), vehicle: water) was 164 % of control; the T/C (endpoint: mean survival time, dose: 256.0 mg/kg/injection, schedule: Q01DX009 (ip), vehicle: water) is 111 % of control; the T/C (endpoint: mean survival time, dose: 512.0 mg/kg/injection, schedule: Q01DX009 (ip), vehicle: water) is 100 % of control.

Turning to `O=[N+]([O-])O.[Ga]`, the T/C is 101 % of control under setting [1]; 103 % of control and 107 % of control (endpoint: median survival time, dose: 64.0 mg/kg/injection, schedule: Q01DX005 (ip), vehicle: saline); 102 % of control (endpoint: median survival time, dose: 128.0 mg/kg/injection, schedule: Q01DX005 (ip), vehicle: saline).

For `S=P(N1CC1)(N1CC1)N1CC1`, the T/C under setting [2] is 100 % of control and 104 % of control and 112 % of control; the T/C under setting [3] is 102 % of control and 106 % of control (2×); the T/C under setting [4] is 104 % of control and 106 % of control and 114 % of control; the T/C (endpoint: mean survival time, dose: 2.0 mg/kg/injection, schedule: Q01DX009 (ip), vehicle: saline) was 124 % of control; the T/C (endpoint: mean survival time, dose: 4.0 mg/kg/injection, schedule: Q01DX009 (ip), vehicle: saline) is 158 % of control and 162 % of control and 168 % of control; the T/C (endpoint: mean survival time, dose: 8.0 mg/kg/injection, schedule: Q01DX009 (ip), vehicle: saline) is 86 % of control.

With `COC(=O)c1ccccc1N=NN(C)C`, the T/C reads like this: (endpoint: mean survival time, dose: 2.5 mg/kg/injection, schedule: Q01DX007 (ip), vehicle: other) 91 % of control; (endpoint: mean survival time, dose: 5.0 mg/kg/injection, schedule: Q01DX007 (ip), vehicle: other) 100 % of control; (endpoint: mean survival time, dose: 10.0 mg/kg/injection, schedule: Q01DX007 (ip), vehicle: other) 106 % of control.

As for `O=P1(NCCCl)OCCCN1CCCl` (stereo not drawn), the T/C runs as follows: under setting [5], 97 % of control; under setting [6], 102 % of control; (endpoint: median survival time, dose: 160.0 mg/kg/injection, schedule: Q01DX001 (ip), vehicle: saline) 105 % of control; (endpoint: median survival time, dose: 320.0 mg/kg/injection, schedule: Q01DX001 (ip), vehicle: saline) 113 % of control.

With `O=C1C=C(N2CC2)C(=O)C=C1N1CC1`, the T/C is, setting by setting: (endpoint: mean survival time, dose: 0.12 mg/kg/injection, schedule: Q01DX009 (ip), vehicle: saline) 102 % of control and 103 % of control and 104 % of control; under setting [2], 102 % of control and 103 % of control and 108 % of control; under setting [3], 103 % of control and 106 % of control and 108 % of control; under setting [4], 89 % of control and 90 % of control and 98 % of control.

In the case of `COc1ccc2c(c1)CCC(c1ccccc1)=C2c1ccc(OCCN2CCCC2)cc1`, the T/C was 98 % of control and 101 % of control (endpoint: median survival time, dose: 12.0 mg/kg/injection, schedule: Q01DX005 (ip), vehicle: Klucel (hydroxypropylcellulose) (HPC)); 106 % of control (endpoint: median survival time, dose: 24.0 mg/kg/injection, schedule: Q01DX005 (ip), vehicle: Klucel (hydroxypropylcellulose) (HPC)); 108 % of control (endpoint: median survival time, dose: 48.0 mg/kg/injection, schedule: Q01DX005 (ip), vehicle: Klucel (hydroxypropylcellulose) (HPC)); 106 % of control (endpoint: median survival time, dose: 96.0 mg/kg/injection, schedule: Q01DX005 (ip), vehicle: Klucel (hydroxypropylcellulose) (HPC)).

`C[C@@H]1C[C@@H]([C@H](O)CC2CC(=O)NC(=O)C2)C(=O)[C@@H](C)C1`: the T/C (endpoint: mean survival time, dose: 10.0 mg/kg/injection, schedule: Q01DX009 (ip), vehicle: saline) is 114 % of control; the T/C (endpoint: mean survival time, dose: 20.0 mg/kg/injection, schedule: Q01DX009 (ip), vehicle: saline) is 101 % of control; the T/C (endpoint: mean survival time, dose: 40.0 mg/kg/injection, schedule: Q01DX009 (ip), vehicle: saline) was 114 % of control; the T/C (endpoint: mean survival time, dose: 80.0 mg/kg/injection, schedule: Q01DX009 (ip), vehicle: saline) is 106 % of control.

For `C1CN(P2(N3CC3)=NP(N3CC3)(N3CC3)=NP(N3CC3)(N3CC3)=N2)CCO1` (stereo not drawn), the T/C (endpoint: median survival time, dose: 20.0 mg/kg/injection, schedule: Q01DX001 (ip), vehicle: saline) is 92 % of control; the T/C under setting [5] was 95 % of control; the T/C under setting [6] was 101 % of control.

Consider `CCCCCC(=O)O[C@]1(C(C)=O)CC[C@H]2[C@@H]3CCC4=CC(=O)CC[C@]4(C)[C@H]3CC[C@@]21C`, for which the T/C (endpoint: median survival time, dose: 8.0 mg/kg/injection, schedule: Q01DX009 (ip), vehicle: saline with Tween-80) is 117 % of control; the T/C (endpoint: median survival time, dose: 16.0 mg/kg/injection, schedule: Q01DX009 (ip), vehicle: saline with Tween-80) was 104 % of control; the T/C (endpoint: median survival time, dose: 32.0 mg/kg/injection, schedule: Q01DX009 (ip), vehicle: saline with Tween-80) is 114 % of control; the T/C (endpoint: median survival time, dose: 64.0 mg/kg/injection, schedule: Q01DX009 (ip), vehicle: saline with Tween-80) is 94 % of control; the T/C (endpoint: median survival time, dose: 128.0 mg/kg/injection, schedule: Q01DX009 (ip), vehicle: saline with Tween-80) is 93 % of control; the T/C (endpoint: median survival time, dose: 256.0 mg/kg/injection, schedule: Q01DX009 (ip), vehicle: saline with Tween-80) was 94 % of control. The T/C (endpoint: median survival time, dose: 512.0 mg/kg/injection, schedule: Q01DX009 (ip), vehicle: saline with Tween-80) is 107 % of control.

As for `CC(CN1CC(=O)NC(=O)C1)N1CC(=O)NC(=O)C1` (stereo not drawn), the T/C is 123 % of control (endpoint: mean survival time, dose: 8.0 mg/kg/injection, schedule: Q01DX009 (ip), vehicle: Klucel (hydroxypropylcellulose) (HPC)); 152 % of control (endpoint: mean survival time, dose: 32.0 mg/kg/injection, schedule: Q01DX009 (ip), vehicle: Klucel (hydroxypropylcellulose) (HPC)); 163 % of control (endpoint: mean survival time, dose: 64.0 mg/kg/injection, schedule: Q01DX009 (ip), vehicle: Klucel (hydroxypropylcellulose) (HPC)); 162 % of control (endpoint: mean survival time, dose: 200.0 mg/kg/injection, schedule: Q04DX003 (ip), vehicle: steriod suspending solution).

As for `CCCCN(C)N=Nc1c(C(N)=O)n[nH]c1C`, the T/C is, setting by setting: (endpoint: median survival time, dose: 16.0 mg/kg/injection, schedule: Q01DX005 (ip), vehicle: saline with Tween-80) 108 % of control; (endpoint: median survival time, dose: 32.0 mg/kg/injection, schedule: Q01DX005 (ip), vehicle: saline with Tween-80) 112 % of control; (endpoint: median survival time, dose: 64.0 mg/kg/injection, schedule: Q01DX005 (ip), vehicle: saline with Tween-80) 96 % of control.

In the case of `CC(C)=CCC1=C(O)c2ccccc2C(=O)C1=O`, the T/C runs as follows: (endpoint: median survival time, dose: 32.0 mg/kg/injection, schedule: Q01DX005 (ip), vehicle: Klucel (hydroxypropylcellulose) (HPC)) 96 % of control and 100 % of control; (endpoint: median survival time, dose: 64.0 mg/kg/injection, schedule: Q01DX005 (ip), vehicle: Klucel (hydroxypropylcellulose) (HPC)) 97 % of control and 102 % of control; (endpoint: median survival time, dose: 128.0 mg/kg/injection, schedule: Q01DX005 (ip), vehicle: Klucel (hydroxypropylcellulose) (HPC)) 92 % of control and 93 % of control; (endpoint: median survival time, dose: 256.0 mg/kg/injection, schedule: Q01DX005 (ip), vehicle: Klucel (hydroxypropylcellulose) (HPC)) 96 % of control and 105 % of control.

`Nc1ncnc2c1ncn2C1OC(COP(=O)(O)O)C(O)C1O` (stereo not drawn): the T/C is 109 % of control and 110 % of control and 112 % of control (endpoint: median survival time, dose: 100.0 mg/kg/injection, schedule: Q01DX009 (ip), vehicle: saline); 97 % of control and 104 % of control and 115 % of control (endpoint: median survival time, dose: 200.0 mg/kg/injection, schedule: Q01DX009 (ip), vehicle: saline); 96 % of control and 101 % of control and 117 % of control (endpoint: median survival time, dose: 400.0 mg/kg/injection, schedule: Q01DX009 (ip), vehicle: saline); 101 % of control and 108 % of control (endpoint: median survival time, dose: 800.0 mg/kg/injection, schedule: Q01DX009 (ip), vehicle: saline).

For the compound `F`, the T/C was 100 % of control and 104 % of control (endpoint: median survival time, dose: 16.0 mg/kg/injection, schedule: Q01DX005 (ip), vehicle: saline); 88 % of control and 105 % of control under setting [1].
